From PubChem BioAssay AID1259408 (Genetic Toxicology Data Bank (GENE-TOX), 2018)
The source made the active and inactive calls. The rule behind the calls is not given here.

System: GENE-TOX genotoxicity assays, various organisms and cells
Assay: GENE-TOX mutagenicity studies
Settings: for call: Assay Type: In vivo carcinogenicity studies
[1] = Species/Cell Type: Vicia faba, Assay Type: Chromosome aberrations, Assay Code: VIC+, Evaluation Type: Evaluation A (Pre-1980)
[2] = Species/Cell Type: Salmonella typhimurium (one or more of the five standard strains: TA98, TA100, TA1535, TA1537, and TA1538), Assay Type: Histidine reverse gene mutation, Ames assay, Assay Code: SAL+*, Activation: With metabolic activation, Evaluation Type: Evaluation A (Pre-1980)
[3] = Species/Cell Type: Rat primary hepatocytes, Assay Type: Unscheduled DNA synthesis (UDS) in vitro, DNA effects, Assay Code: UDP+D, Dose Response: With dose response, Evaluation Type: Evaluation A (Pre-1980)
[4] = Species/Cell Type: Nonhuman, Assay Code: CCG+, Evaluation Type: Evaluation A (Pre-1980)
[5] = Species/Cell Type: Drosophila melanogaster, Assay Type: Sex-linked recessive lethal gene mutation, Assay Code: SRLT, Evaluation Type: Evaluation A (Pre-1980)
[6] = Species/Cell Type: Allium cepa, Assay Type: Chromosome aberrations, Assay Code: ALC+D, Dose Response: With dose response, Evaluation Type: Evaluation A (Pre-1980)
[7] = Species/Cell Type: Salmonella typhimurium (one or more of the five standard strains: TA98, TA100, TA1535, TA1537, and TA1538), Assay Type: Histidine reverse gene mutation, Ames assay, Assay Code: SAL+, Evaluation Type: Evaluation A (Pre-1980)
[8] = Species/Cell Type: Syrian hamster embryo (SHE) cells, Assay Type: Cell transformation, clonal assay, Assay Code: CTCT, Evaluation Type: Evaluation A (Pre-1980)

O=[O+][O-]
mutagenic call (Species/Cell Type: Human lymphocytes or leukocytes, Assay Type: Chromosome aberrations in vitro, Assay Code: CY7T, Evaluation Type: Evaluation A (Pre-1980)): no conclusion | mutagenic call (Species/Cell Type: Human lymphocytes or leukocytes, Assay Type: Chromosome aberrations in vivo, Assay Code: CY8T, Evaluation Type: Evaluation A (Pre-1980)): no conclusion | mutagenic call (Species/Cell Type: Human, Assay Type: Sister-chromatid exchange (SCE) in vitro, Assay Code: SC1+D, Dose Response: With dose response, Evaluation Type: Evaluation B (Post-1980)): active; positive | mutagenic call (Species/Cell Type: Mammalian germ cells, Sex: Male, Assay Type: Chromosome aberrations in vivo, Assay Code: CY9T, Evaluation Type: Evaluation A (Pre-1980)): no conclusion | mutagenic call (Species/Cell Type: Nonhuman bone marrow, Assay Type: Chromosome aberrations, in vivo, Assay Code: CY#-, Evaluation Type: Evaluation A (Pre-1980)): inactive; negative | mutagenic call (Species/Cell Type: Nonhuman lymphocytes or leukocytes, Assay Type: Chromosome aberrations in vivo, Assay Code: CY%T, Evaluation Type: Evaluation A (Pre-1980)): no conclusion | mutagenic call (Species/Cell Type: Nonhuman, Assay Type: Sister-chromatid exchange (SCE) in vivo, Assay Code: SC3-, Evaluation Type: Evaluation A (Pre-1980)): inactive; negative | mutagenic call (Species/Cell Type: Tradescantia species, Assay Type: Gene mutation, Assay Code: TRM+D, Dose Response: With dose response, Evaluation Type: Evaluation A (Pre-1980)): active; positive | mutagenic call [1]: active; positive

Clc1cc2oc3cc(Cl)c(Cl)cc3c2cc1Cl
mutagenic call (Species/Cell Type: Saccharomyces cerevisiae, Assay Type: Forward gene mutation, Assay Code: YEF-, Evaluation Type: Evaluation A (Pre-1980)): inactive; negative | mutagenic call (Species/Cell Type: Saccharomyces cerevisiae, Assay Type: Mitotic recombination or gene conversion, Assay Code: YEC-, Evaluation Type: Evaluation A (Pre-1980)): inactive; negative | mutagenic call (Species/Cell Type: Saccharomyces cerevisiae, Assay Type: Mitotic recombination or gene conversion, Assay Code: YEH-, Evaluation Type: Evaluation A (Pre-1980)): inactive; negative

CN(N=O)c1ccccc1
mutagenic call (Species/Cell Type: Chinese hamster lung (V79) cells, Assay Type: Forward gene mutation at the HPRT or ouabain locus, Assay Code: V79-*, Activation: With metabolic activation, Evaluation Type: Evaluation A (Pre-1980)): inactive; negative | mutagenic call [1]: active; positive

CN1CCN(CCCN2c3ccccc3Sc3ccc(C(F)(F)F)cc32)CC1
mutagenic call (Species/Cell Type: Hordeum vulgare (barley), Assay Type: Chromosome aberrations, Assay Code: HOC+, Evaluation Type: Evaluation A (Pre-1980)): active; positive | mutagenic call (Species/Cell Type: Mammalian polychromatic erythrocytes, Assay Type: Micronucleus test, chromosome aberrations, Assay Code: MNT+, Evaluation Type: Evaluation B (Post-1980)): active; positive

O=NN(CCCl)C(=O)NCCCCO
mutagenic call (Species/Cell Type: Saccharomyces cerevisiae, Assay Type: Mitotic recombination or gene conversion, Assay Code: YEC+, Evaluation Type: Evaluation A (Pre-1980)): active; positive

COc1ccc2c(c1)CC[C@@H]1[C@@H]2CC[C@]2(C)[C@@H](O)[C@H](O)C[C@@H]12
mutagenic call (Species/Cell Type: Rat, Sex: Male, Assay Type: Sperm morphology, Assay Code: SPA+, Evaluation Type: Evaluation A (Pre-1980)): active; positive

O=C1c2cc(O)ccc2-c2ccc(O)c3cccc1c23
mutagenic call [2]: active; positive

CN(CCCC(=O)c1cccnc1)N=O
mutagenic call [3]: active; positive

C#C[C@]1(O)CC[C@H]2[C@@H]3CCC4=CC(=O)CC[C@@H]4[C@H]3CC[C@@]21C
mutagenic call (Species/Cell Type: Human, Sex: Male, Assay Type: Sperm morphology, Assay Code: SPH+, Evaluation Type: Evaluation A (Pre-1980)): active; positive | call [4]: active; positive

CN(C)CCCN1c2ccccc2CCc2ccccc21
mutagenic call (Species/Cell Type: Human, Assay Type: Sister-chromatid exchange (SCE) in vitro, Assay Code: SC1T, Evaluation Type: Evaluation B (Post-1980)): no conclusion | mutagenic call (Species/Cell Type: Rodents, Sex: Male, Assay Type: Dominant lethal test, Assay Code: DLT-, Evaluation Type: Evaluation A (Pre-1980)): inactive; negative

O=C(O)CN(CC(=O)O)C1C[C@H]1N(CC(=O)O)CC(=O)O (some centres undefined)
mutagenic call (Species/Cell Type: Chinese hamster lung (V79) cells, Assay Type: Forward gene mutation at the HPRT or ouabain locus, Assay Code: V79+, Evaluation Type: Evaluation A (Pre-1980)): active; positive

CCNNCC
call [4]: active; positive

O=c1c2ccccc2sc2c(CO)ccc(NCCN3CCCCC3)c12
mutagenic call (Species/Cell Type: Mouse lymphoma (L5178Y) cells, Assay Type: Forward gene mutation at the thymidine kinase (TK) locus, chromosome aberrations, Assay Code: L51+, Evaluation Type: Evaluation A (Pre-1980)): active; positive

COP(=S)(OC)Oc1cc(Cl)c(Br)cc1Cl
mutagenic call [5]: no conclusion

CCCCCCCCCCCCCCCCCCOCC(O)COP(=O)([O-])OCC[N+](C)(C)C (centres undefined)
mutagenic call (Species/Cell Type: Mammalian polychromatic erythrocytes, Assay Type: Micronucleus test, chromosome aberrations, Assay Code: MNTT, Evaluation Type: Evaluation B (Post-1980)): no conclusion

C=CCOc1nc2c(c(=O)n(C)c(=O)n2C)n1C
mutagenic call [6]: active; positive

CC(Cl)CCl (centres undefined)
mutagenic call [7]: active; positive

O=C(O)[C@H]1O[C@@H](N(O)c2ccc(-c3ccccc3)cc2)[C@H](O)[C@@H](O)[C@@H]1O
mutagenic call [7]: active; positive

CCN(C)N=O
call [4]: active; positive | mutagenic call (Species/Cell Type: Salmonella typhimurium (one or more of the five standard strains: TA98, TA100, TA1535, TA1537, and TA1538), Assay Type: Histidine reverse gene mutation, Ames assay, Assay Code: SALT, Evaluation Type: Evaluation A (Pre-1980)): no conclusion

Cc1cccc(N=Nc2ccc(N(C)C)cc2)c1
mutagenic call [5]: no conclusion | mutagenic call (Species/Cell Type: Escherichia coli polA (W3110 vs P3478), Assay Type: Rec-assay, DNA effects (bacterial DNA repair), Assay Code: RE2-, Evaluation Type: Evaluation A (Pre-1980)): inactive; negative | mutagenic call (Species/Cell Type: Escherichia coli polA (W3119 vs P3478), Assay Type: Rec-assay, DNA effects (bacterial DNA repair), Assay Code: RE1T, Evaluation Type: Evaluation A (Pre-1980)): no conclusion | mutagenic call (Species/Cell Type: Fischer rat embryo (RLV/1706) cells, Assay Type: Cell transformation, viral enhanced, Assay Code: CTR+, Evaluation Type: Evaluation A (Pre-1980)): active; positive | mutagenic call (Species/Cell Type: Human diploid fibroblasts, Assay Type: Unscheduled DNA synthesis (UDS) in vitro, DNA effects, Assay Code: UDH-, Evaluation Type: Evaluation A (Pre-1980)): inactive; negative | mutagenic call (Species/Cell Type: Mouse embryo (AKR/ME) cells, Assay Type: Cell transformation, Assay Code: CTK-, Evaluation Type: Evaluation A (Pre-1980)): inactive; negative | mutagenic call (Species/Cell Type: Neurospora crassa, Assay Type: Forward gene mutation, Assay Code: NEF+, Evaluation Type: Evaluation A (Pre-1980)): active; positive | call [4]: active; positive | mutagenic call (Species/Cell Type: Nonhuman, Assay Type: Sister-chromatid exchange (SCE) in vitro, Assay Code: SC2+D, Dose Response: With dose response, Evaluation Type: Evaluation B (Post-1980)): active; positive | mutagenic call (Species/Cell Type: Nonhuman, Assay Type: Sister-chromatid exchange (SCE) in vivo, Assay Code: SC3+, Evaluation Type: Evaluation B (Post-1980)): active; positive | mutagenic call [3]: active; positive | mutagenic call (Species/Cell Type: Saccharomyces cerevisiae, Assay Type: Mitotic recombination or gene conversion, Assay Code: YEH+*, Activation: With metabolic activation, Evaluation Type: Evaluation A (Pre-1980)): active; positive | mutagenic call (Species/Cell Type: Salmonella typhimurium, Assay Type: Forward and reverse gene mutation, host-mediated assay, Assay Code: HMA-, Evaluation Type: Evaluation A (Pre-1980)): inactive; negative | mutagenic call [8]: no conclusion

CCOC(=O)NC(=S)Nc1ccccc1NC(=S)NC(=O)OCC
mutagenic call (Species/Cell Type: Aspergillus nidulans, Assay Type: Aneuploidy, chromosome aberrations, Assay Code: ASN+, Evaluation Type: Evaluation A (Pre-1980)): active; positive | mutagenic call (Species/Cell Type: Aspergillus nidulans, Assay Type: Mitotic recombination, Assay Code: ASGT, Evaluation Type: Evaluation A (Pre-1980)): no conclusion

O[C@@H]1c2ccccc2-c2cc3ccc4ccccc4c3cc2[C@H]1O
mutagenic call (Species/Cell Type: Chinese hamster lung (V79) cells, Assay Type: Forward gene mutation at the HPRT or ouabain locus, Assay Code: V79-, Evaluation Type: Evaluation A (Pre-1980)): inactive; negative | mutagenic call (Species/Cell Type: Mouse prostate cells, Assay Type: Cell transformation, Assay Code: CTM-, Evaluation Type: Evaluation A (Pre-1980)): inactive; negative | call (Species/Cell Type: Nonhuman, Assay Code: CCGT, Evaluation Type: Evaluation A (Pre-1980)): no conclusion | mutagenic call [2]: active; positive | mutagenic call [8]: no conclusion

CC1=CC(=C(c2ccc(N)cc2)c2ccc(N)cc2)C=CC1=N (tested in a mixture with another compound)
mutagenic call (Species/Cell Type: Saccharomyces cerevisiae, Assay Type: Forward gene mutation, Assay Code: YEFT, Evaluation Type: Evaluation A (Pre-1980)): no conclusion

O=C1OC(c2ccc(O)cc2)(c2ccc(O)cc2)c2ccccc21
mutagenic call (Species/Cell Type: Bacillus subtilis (H17 vs M45), Assay Type: Rec-assay, spot test, DNA effects (bacterial DNA repair), Assay Code: REW-, Evaluation Type: Evaluation A (Pre-1980)): inactive; negative | mutagenic call (Species/Cell Type: Bacillus subtilis (H17 vs M45T), Assay Type: Rec-assay, spot test, DNA effects (bacterial DNA repair), Assay Code: REXT, Evaluation Type: Evaluation A (Pre-1980)): no conclusion

[Hg][c]1ccccc1
mutagenic call [6]: active; positive
